Results: the supplement of paper PMC10331698
± gives the standard deviation of the averaged measurements.

Columns and labels:
Test in all cases: level (log10 ratio to DMSO vehicle control); higher = higher biomarker level / cell amount than vehicle control
Settings in all cases: in DMSO
[1] = compound: NC(=O)C(F)(F)C(F)(F)C(F)(F)C(F)F
Method: (§1)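 BioMAP Diversity Plus panel of 12 human primary cell co-culture systems (3C, 4H, LPS, SAg, BT, BF4T, BE3C, CASM3C, HDF3CGF, KF3CT, MyoF, Mphg). Compounds were added 1 h before stimulation and left for 24 h (MyoF 48 h; BT 72 h for soluble read-outs or 6 d for IgG). Biomarkers were read by ELISA, cytotoxicity by SRB, PBMC viability and proliferation by Alamar Blue. Each well value was divided by the mean of 8 DMSO control wells on the same plate and log10 transformed; duplicate blinded samples were tested at 4 concentrations.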

[2] = compound: NS(=O)(=O)C(F)(F)C(F)(F)C(F)(F)C(F)(F)C(F)(F)C(F)(F)F [Perfluorohexanesulfonamide]
Method: as §1

[3] = compound: C=C(C)C(=O)OCCC(F)(F)C(F)(F)C(F)(F)C(F)(F)C(F)(F)C(F)(F)F [6:2 Fluorotelomer methacrylate]
Method: as §1

Heptafluorobutyl iodide = compound: FC(F)(F)C(F)(F)C(F)(F)CI [Heptafluorobutyl iodide]
Method: as §1

[4] = compound: COC(=O)C(F)(F)C(F)(F)OC(F)(C(F)(F)F)C(F)(F)OC(F)=C(F)F [Methyl perfluoro(3-(1-ethenyloxypropan-2-yloxy)propanoate)]
Method: as §1

[5] = compound: FC(F)(F)C(F)(F)CNCC(F)(F)C(F)(F)F [Bis(1H,1H-perfluoropropyl)amine]
Method: as §1

[6] = compound: O=C(O)C(F)(F)C(F)(F)C(F)(F)C(F)(F)C(F)(F)C(F)(F)C(F)(F)C(F)(F)C(F)(F)C(F)F [11-H-Perfluoroundecanoic acid]
Method: as §1

Test System	level (log10) ([1]; 6700 nM)	level (log10) ([1]; 20000 nM)	level (log10) ([1]; 60000 nM)	level (log10) ([2]; 6700 nM)	level (log10) ([2]; 20000 nM)	level (log10) ([2]; 60000 nM)	level (log10) ([3]; 6700 nM)	level (log10) ([3]; 20000 nM)	level (log10) ([3]; 60000 nM)	level (log10) (Heptafluorobutyl iodide; 6700 nM)	level (log10) (Heptafluorobutyl iodide; 20000 nM)	level (log10) (Heptafluorobutyl iodide; 60000 nM)	level (log10) ([4]; 6700 nM)	level (log10) ([4]; 20000 nM)	level (log10) ([5]; 6700 nM)	level (log10) ([5]; 20000 nM)	level (log10) ([5]; 60000 nM)	level (log10) ([6]; 6700 nM)	level (log10) ([6]; 20000 nM)
4H:SRB	-0.0195 ± 0.0078	-0.0055 ± 0.005	-0.017 ± 0.021	-0.01 ± 0.0085	-0.028 ± 0.0099	-0.101 ± 0.0014	-0.0005 ± 0.0035	0.0005 ± 0.016	0.008 ± 0.014	-0.001 ± 0.0028	0.0045 ± 0.0064	0.011 ± 0.0099	-0.0015 ± 0.00071	0.007 ± 0.014	-0.0245 ± 0.013	0 ± 0.017	0.0015 ± 0.013	0.0145 ± 0.0092	0.0105 ± 0.018
4H:VEGFR2	0 ± 0.0042	-0.006 ± 0.0099	-0.001 ± 0.054	-0.008 ± 0.023	-0.023 ± 0.013	-0.0965 ± 0.022	-0.047 ± 0.034	-0.0305 ± 0.00071	-0.0265 ± 0.039	-0.0075 ± 0.005	0.0155 ± 0.063	0.0445 ± 0.036	-0.008 ± 0.014	0.006 ± 0.034	0.0065 ± 0.028	0.0135 ± 0.023	-0.009	-0.0245 ± 0.032	0.001 ± 0.047
BE3C:Keratin 8/18	-0.0045 ± 0.0092	-0.0025 ± 0.005	-0.0185 ± 0.033	0.0065 ± 0.012	0.0055 ± 0.033	-0.033 ± 0.025	-0.051 ± 0.055	-0.0445 ± 0.053	-0.0305 ± 0.035	0.0025 ± 0.0078	-0.0025 ± 0.00071	0.005 ± 0.013	-0.0095 ± 0.049	-0.004 ± 0.025	-0.008 ± 0.0028	-0.007 ± 0.0014	0.006 ± 0.024	-0.0125 ± 0.025	-0.0805 ± 0.019
BE3C:MMP-1	0.003 ± 0.054	-0.001 ± 0.0014	0.024 ± 0.0057	0.0255 ± 0.015	0.0645 ± 0.0035	0.195 ± 0.02	0.0525 ± 0.0035	0.046 ± 0.0057	0.0375 ± 0.0078	0 ± 0.0014	-0.0085 ± 0.005	0.02 ± 0.0099	0.102 ± 0.025	0.176 ± 0.0092	-0.0145 ± 0.026	-0.014 ± 0.011	0.0185 ± 0.049	0.068 ± 0.013	-0.132 ± 0.012
BE3C:PAI-I	0.0065 ± 0.0064	-0.0055 ± 0.0035	0 ± 0.0028	-0.055 ± 0.062	-0.087 ± 0.079	-0.165 ± 0.068	-0.0115 ± 0.037	-0.019 ± 0.034	-0.016 ± 0.033	-0.018 ± 0.017	-0.027 ± 0.025	-0.0085 ± 0.016	0.0185 ± 0.019	0.037 ± 0.0071	-0.0395 ± 0.00071	-0.022 ± 0.0057	-0.0075 ± 0.023	-0.082 ± 0.018	-0.367 ± 0.047
BE3C:SRB	-0.0035 ± 0.0035	0.0005 ± 0.005	-0.0055 ± 0.0021	-0.0065 ± 0.00071	-0.022	-0.058 ± 0.0099	0.0015 ± 0.0035	0.003 ± 0.0028	0.0025 ± 0.0021	0.002 ± 0.0028	-0.003 ± 0.0071	0.0035 ± 0.00071	-0.005 ± 0.0042	0.001 ± 0.0057	-0.002 ± 0.0057	-0.004	0.003 ± 0.0071	-0.0095 ± 0.0064	-0.235 ± 0.011
BE3C:tPA	-0.008 ± 0.0028	-0.0275 ± 0.016	-0.0235 ± 0.0021	-0.0075 ± 0.035	0.0005 ± 0.016	-0.245 ± 0.059	-0.0525 ± 0.036	-0.053 ± 0.018	-0.056 ± 0.013	-0.0095 ± 0.029	-0.024 ± 0.011	0.015 ± 0.044	-0.114 ± 0.033	-0.142 ± 0.018	-0.0285 ± 0.0021	-0.0685 ± 0.011	-0.0225 ± 0.036	0.036 ± 0.058	-0.338 ± 0.018
BE3C:uPA	-0.01 ± 0.0057	-0.013 ± 0.0085	-0.0045 ± 0.013	-0.0115 ± 0.032	0.0025 ± 0.037	-0.0365 ± 0.037	0.0055 ± 0.0064	0.0085 ± 0.0092	0.019 ± 0.021	-0.0015 ± 0.00071	-0.0105 ± 0.00071	-0.0025 ± 0.0035	0.0005 ± 0.0035	0.0305 ± 0.012	-0.0155 ± 0.0064	-0.0185 ± 0.0092	-0.003 ± 0.013	-0.005 ± 0.02	-0.211 ± 0.029
CASM3C:CCL2/MCP-1	-0.0055 ± 0.013	-0.011 ± 0.018	0.015 ± 0.045	-0.006 ± 0.0014	0.0015 ± 0.012	0.028 ± 0.017	-0.005 ± 0.0028	-0.011 ± 0.0014	-0.0015 ± 0.021	-0.0055 ± 0.0021	-0.021 ± 0.011	0.018 ± 0.045	-0.001 ± 0.0014	0.008 ± 0.016	-0.0065 ± 0.013	-0.0205 ± 0.015	-0.0055 ± 0.04	0.0005 ± 0.0035	0.012 ± 0.024
CASM3C:CD87/uPAR	-0.0115 ± 0.015	-0.0035 ± 0.0078	-0.019 ± 0.017	-0.01 ± 0.0071	-0.028 ± 0.0028	-0.029 ± 0.033	-0.014 ± 0.028	-0.0285 ± 0.023	-0.0355 ± 0.023	-0.017 ± 0.0042	0.0205 ± 0.029	-0.0015 ± 0.00071	-0.015 ± 0.027	-0.0165 ± 0.026	-0.0255 ± 0.012	-0.0155 ± 0.019	-0.012 ± 0.035	-0.0165 ± 0.011	-0.025 ± 0.0071
CASM3C:CD106/VCAM-1	-0.009 ± 0.0057	-0.003 ± 0.014	-0.008 ± 0.014	-0.014 ± 0.016	-0.0285 ± 0.005	-0.0235 ± 0.0064	-0.0005 ± 0.011	-0.005 ± 0.016	-0.005 ± 0.0042	-0.023 ± 0.013	-0.0245 ± 0.019	-0.028 ± 0.0042	-0.024 ± 0.011	-0.04 ± 0.021	-0.06 ± 0.024	-0.0545 ± 0.026	-0.0105 ± 0.053	-0.016 ± 0.027	-0.023 ± 0.021
CASM3C:CD141/Thrombomodulin	-0.008 ± 0.0042	0.0085 ± 0.025	0.0085 ± 0.0092	-0.022 ± 0.025	-0.0305 ± 0.021	0.016 ± 0.014	0.016 ± 0.071	0.021 ± 0.067	0.03 ± 0.081	-0.025 ± 0.0099	-0.039 ± 0.0085	-0.0125 ± 0.013	-0.0085 ± 0.005	0.023 ± 0.018	0.019 ± 0.011	0.007 ± 0.0099	0.001 ± 0.02	-0.015 ± 0.021	-0.0085 ± 0.019
CASM3C:CD142/Tissue Factor	-0.01 ± 0.017	-0.001 ± 0.011	-0.0075 ± 0.00071	-0.0145 ± 0.023	-0.0275 ± 0.012	0.0175 ± 0.018	-0.0075 ± 0.033	-0.0175 ± 0.029	-0.0035 ± 0.0078	0.0065 ± 0.0035	-0.0175 ± 0.0035	0.0095 ± 0.056	0.0075 ± 0.022	0.0285 ± 0.012	-0.0175 ± 0.0021	-0.0085 ± 0.054	-0.0095 ± 0.046	-0.031 ± 0.0085	-0.0365 ± 0.012
CASM3C:CXCL8/IL-8	-0.006	-0.006	0.004 ± 0.031	-0.0235 ± 0.0035	-0.014 ± 0.014	0.001 ± 0.0085	0.0185 ± 0.018	0.0165 ± 0.012	0.0205 ± 0.00071	0.0015 ± 0.012	-0.014 ± 0.014	-0.001 ± 0.014	-0.004 ± 0.0085	0.013 ± 0.0085	-0.0065 ± 0.0092	-0.005 ± 0.014	0.003 ± 0.027	-0.001 ± 0.0057	-0.011 ± 0.0014
CASM3C:CXCL9/MIG	-0.0075 ± 0.021	-0.0055 ± 0.0035	0.0005 ± 0.0078	0.003 ± 0.0042	-0.0065 ± 0.005	-0.003 ± 0.023	0.011 ± 0.016	0.0255 ± 0.012	0.041 ± 0.0099	-0.0295 ± 0.0021	-0.0225 ± 0.0021	-0.002 ± 0.038	-0.0025 ± 0.0078	-0.007 ± 0.013	0.0175 ± 0.025	0.006 ± 0.0014	-0.0065 ± 0.069	0 ± 0.0071	-0.009 ± 0.018
